Assays:
Assay in all cases: biochemical
Assay type in all cases: binding
[1] = molecular target: 468 kinases (Homo sapiens, UniProt O15264); conditions: p38-delta; read-out: % Inhibition @ 100 nM
[2] = molecular target: 468 kinases (Homo sapiens, UniProt O96017); conditions: CHEK2; read-out: % Inhibition @ 100 nM
[3] = molecular target: 468 kinases (Homo sapiens, UniProt P00533, G719C); conditions: EGFR(G719C); read-out: % Inhibition @ 100 nM
[4] = molecular target: 468 kinases (Homo sapiens, UniProt P23458); conditions: JAK1(JH1domain-catalytic); read-out: % Inhibition @ 100 nM
[5] = molecular target: 468 kinases (Homo sapiens, UniProt P27037); conditions: ACVR2A; read-out: % Inhibition @ 100 nM
[6] = molecular target: 468 kinases (Homo sapiens, UniProt P29320); conditions: EPHA3; read-out: % Inhibition @ 100 nM
[7] = molecular target: 468 kinases (Homo sapiens, UniProt P37173); conditions: TGFBR2; read-out: % Inhibition @ 100 nM
[8] = molecular target: 468 kinases (Homo sapiens, UniProt P42338); conditions: PIK3CB; read-out: % Inhibition @ 100 nM
[9] = molecular target: 468 kinases (Homo sapiens, UniProt P48736); conditions: PIK3CG; read-out: % Inhibition @ 100 nM
[10] = molecular target: 468 kinases (Homo sapiens, UniProt P49760); conditions: CLK2; read-out: % Inhibition @ 100 nM
[11] = molecular target: 468 kinases (Homo sapiens, UniProt P51956); conditions: NEK3; read-out: % Inhibition @ 100 nM
[12] = molecular target: 468 kinases (Homo sapiens, UniProt P54756); conditions: EPHA5; read-out: % Inhibition @ 100 nM
[13] = molecular target: 468 kinases (Homo sapiens, UniProt Q12851); conditions: MAP4K2; read-out: % Inhibition @ 100 nM
[14] = molecular target: 468 kinases (Homo sapiens, UniProt Q14012); conditions: CAMK1; read-out: % Inhibition @ 100 nM
[15] = molecular target: 468 kinases (Homo sapiens, UniProt Q15208); conditions: NDR1; read-out: % Inhibition @ 100 nM
[16] = molecular target: 468 kinases (Homo sapiens, UniProt Q15831); conditions: LKB1; read-out: % Inhibition @ 100 nM
[17] = molecular target: 468 kinases (Homo sapiens, UniProt Q5S007, G2019S); conditions: LRRK2(G2019S); read-out: % Inhibition @ 100 nM
[18] = molecular target: 468 kinases (Homo sapiens, UniProt Q86YV6); conditions: MYLK4; read-out: % Inhibition @ 100 nM
[19] = molecular target: 468 kinases (Homo sapiens, UniProt Q8IW41); conditions: MAPKAPK5; read-out: % Inhibition @ 100 nM
[20] = molecular target: 468 kinases (Homo sapiens, UniProt Q8N568); conditions: DCAMKL2; read-out: % Inhibition @ 100 nM
[21] = molecular target: 468 kinases (Homo sapiens, UniProt Q9BUB5); conditions: MKNK1; read-out: % Inhibition @ 100 nM
[22] = molecular target: 468 kinases (Homo sapiens, UniProt Q9C098); conditions: DCAMKL3; read-out: % Inhibition @ 100 nM
[23] = molecular target: 468 kinases (Homo sapiens, UniProt Q9H2X6); conditions: HIPK2; read-out: % Inhibition @ 100 nM
[24] = molecular target: 468 kinases (Homo sapiens, UniProt Q9H422); conditions: HIPK3; read-out: % Inhibition @ 100 nM
[25] = molecular target: 468 kinases (Homo sapiens, UniProt Q9HCP0); conditions: CSNK1G1; read-out: % Inhibition @ 100 nM
[26] = molecular target: 468 kinases (Homo sapiens, UniProt Q9NWZ3); conditions: TRAK4; read-out: % Inhibition @ 100 nM
[27] = molecular target: 468 kinases (Homo sapiens, UniProt Q9NY57); conditions: YANK2; read-out: % Inhibition @ 100 nM
[28] = molecular target: 468 kinases (Homo sapiens, UniProt Q9UEE5); conditions: DRAK1; read-out: % Inhibition @ 100 nM
[29] = molecular target: 468 kinases (Homo sapiens, UniProt Q9UF33); conditions: EPHA6; read-out: % Inhibition @ 100 nM
[30] = molecular target: 468 kinases (Homo sapiens, UniProt Q9UM73); conditions: ALK; read-out: % Inhibition @ 100 nM
[31] = molecular target: 468 kinases (Homo sapiens, UniProt Q9UPE1); conditions: SRPK3; read-out: % Inhibition @ 100 nM
[32] = molecular target: 468 kinases (Homo sapiens, UniProt Q9UPZ9); conditions: ICK; read-out: % Inhibition @ 100 nM
[33] = molecular target: 468 kinases (Homo sapiens, UniProt Q9Y2H9); conditions: MAST1; read-out: % Inhibition @ 100 nM

468 kinases (Homo sapiens, UniProt Q9UM73), sequence (Q9UM73 19-1620 limits assumed): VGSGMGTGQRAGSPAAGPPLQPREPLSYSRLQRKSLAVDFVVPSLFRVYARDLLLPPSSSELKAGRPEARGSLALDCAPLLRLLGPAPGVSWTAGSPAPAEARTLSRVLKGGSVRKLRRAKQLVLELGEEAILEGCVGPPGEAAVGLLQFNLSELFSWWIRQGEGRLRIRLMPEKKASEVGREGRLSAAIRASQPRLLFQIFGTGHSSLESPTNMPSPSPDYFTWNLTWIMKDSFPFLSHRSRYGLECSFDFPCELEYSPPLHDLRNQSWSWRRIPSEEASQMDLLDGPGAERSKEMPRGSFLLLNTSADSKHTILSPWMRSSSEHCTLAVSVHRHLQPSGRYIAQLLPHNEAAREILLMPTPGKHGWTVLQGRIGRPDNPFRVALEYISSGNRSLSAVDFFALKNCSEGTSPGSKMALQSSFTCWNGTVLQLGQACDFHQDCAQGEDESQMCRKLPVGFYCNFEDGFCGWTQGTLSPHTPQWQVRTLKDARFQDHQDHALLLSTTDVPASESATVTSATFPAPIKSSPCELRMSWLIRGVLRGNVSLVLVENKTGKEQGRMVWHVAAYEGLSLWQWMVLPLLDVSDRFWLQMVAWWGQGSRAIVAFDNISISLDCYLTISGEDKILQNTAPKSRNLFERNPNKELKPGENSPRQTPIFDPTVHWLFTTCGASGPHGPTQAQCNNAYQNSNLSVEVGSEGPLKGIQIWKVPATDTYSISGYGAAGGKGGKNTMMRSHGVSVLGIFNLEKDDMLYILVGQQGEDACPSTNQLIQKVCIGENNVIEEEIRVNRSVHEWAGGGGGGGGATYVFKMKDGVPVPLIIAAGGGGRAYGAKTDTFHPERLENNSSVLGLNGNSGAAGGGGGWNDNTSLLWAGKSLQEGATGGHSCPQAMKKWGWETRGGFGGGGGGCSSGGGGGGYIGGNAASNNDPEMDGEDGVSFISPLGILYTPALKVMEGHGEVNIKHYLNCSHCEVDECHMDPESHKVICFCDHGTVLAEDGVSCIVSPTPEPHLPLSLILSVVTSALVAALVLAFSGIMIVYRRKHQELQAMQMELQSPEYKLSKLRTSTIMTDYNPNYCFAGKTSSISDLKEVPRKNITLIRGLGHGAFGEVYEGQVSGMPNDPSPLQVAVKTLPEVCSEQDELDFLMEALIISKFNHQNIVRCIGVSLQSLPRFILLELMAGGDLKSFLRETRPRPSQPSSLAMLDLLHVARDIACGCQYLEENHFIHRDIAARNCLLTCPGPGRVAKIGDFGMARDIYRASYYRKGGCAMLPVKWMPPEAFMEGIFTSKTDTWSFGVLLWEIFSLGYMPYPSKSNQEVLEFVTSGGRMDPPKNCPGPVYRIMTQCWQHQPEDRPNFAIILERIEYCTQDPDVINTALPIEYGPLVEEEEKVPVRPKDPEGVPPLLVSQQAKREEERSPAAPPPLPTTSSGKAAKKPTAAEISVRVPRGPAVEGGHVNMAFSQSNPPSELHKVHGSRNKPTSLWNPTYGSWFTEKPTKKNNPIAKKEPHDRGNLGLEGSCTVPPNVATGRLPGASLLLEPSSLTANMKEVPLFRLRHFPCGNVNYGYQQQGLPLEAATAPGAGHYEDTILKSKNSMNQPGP
468 kinases (Homo sapiens, UniProt P54756), sequence (P54756 25-1037 limits assumed): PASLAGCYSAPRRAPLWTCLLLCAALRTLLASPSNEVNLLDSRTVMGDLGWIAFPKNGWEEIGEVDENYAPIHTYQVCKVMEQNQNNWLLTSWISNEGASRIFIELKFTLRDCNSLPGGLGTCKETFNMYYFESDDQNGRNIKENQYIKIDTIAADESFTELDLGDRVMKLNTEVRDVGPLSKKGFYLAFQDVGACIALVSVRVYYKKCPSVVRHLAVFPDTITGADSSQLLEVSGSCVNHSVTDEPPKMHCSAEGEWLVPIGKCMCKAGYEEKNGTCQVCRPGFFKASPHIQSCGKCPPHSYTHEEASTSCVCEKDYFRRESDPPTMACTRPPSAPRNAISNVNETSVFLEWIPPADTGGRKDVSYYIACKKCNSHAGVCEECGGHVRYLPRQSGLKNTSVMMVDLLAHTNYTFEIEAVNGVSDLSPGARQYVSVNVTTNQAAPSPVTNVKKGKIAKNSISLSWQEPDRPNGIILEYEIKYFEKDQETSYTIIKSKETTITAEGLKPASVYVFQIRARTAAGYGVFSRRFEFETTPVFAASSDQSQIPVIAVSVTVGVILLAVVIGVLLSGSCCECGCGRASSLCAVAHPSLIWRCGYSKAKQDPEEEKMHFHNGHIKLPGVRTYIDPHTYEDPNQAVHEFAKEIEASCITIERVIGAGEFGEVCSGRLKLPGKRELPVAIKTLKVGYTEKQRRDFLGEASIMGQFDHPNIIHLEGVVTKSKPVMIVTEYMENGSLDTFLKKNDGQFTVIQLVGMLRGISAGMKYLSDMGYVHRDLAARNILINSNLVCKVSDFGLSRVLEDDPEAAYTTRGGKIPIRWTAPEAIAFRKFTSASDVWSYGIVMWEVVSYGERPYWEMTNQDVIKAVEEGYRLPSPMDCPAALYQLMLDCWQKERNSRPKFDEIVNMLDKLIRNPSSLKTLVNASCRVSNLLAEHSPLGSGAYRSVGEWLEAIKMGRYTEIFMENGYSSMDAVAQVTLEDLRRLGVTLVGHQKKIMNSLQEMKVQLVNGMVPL
468 kinases (Homo sapiens, UniProt Q15208), sequence (Q15208 2-465 limits assumed): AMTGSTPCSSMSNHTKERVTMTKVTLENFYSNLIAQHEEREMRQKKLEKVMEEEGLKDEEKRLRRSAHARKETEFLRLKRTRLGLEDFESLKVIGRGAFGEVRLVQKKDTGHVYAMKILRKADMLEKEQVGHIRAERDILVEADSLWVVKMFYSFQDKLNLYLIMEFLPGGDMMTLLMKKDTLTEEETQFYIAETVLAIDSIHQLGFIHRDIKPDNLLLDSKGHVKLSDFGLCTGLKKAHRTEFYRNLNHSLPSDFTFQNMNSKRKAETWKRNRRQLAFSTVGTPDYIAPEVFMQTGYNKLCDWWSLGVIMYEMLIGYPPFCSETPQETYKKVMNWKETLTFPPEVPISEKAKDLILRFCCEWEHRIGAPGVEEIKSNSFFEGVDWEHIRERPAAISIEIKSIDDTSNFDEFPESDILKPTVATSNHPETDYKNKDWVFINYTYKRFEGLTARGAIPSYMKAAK
468 kinases (Homo sapiens, UniProt P29320), sequence (P29320 21-983 limits assumed): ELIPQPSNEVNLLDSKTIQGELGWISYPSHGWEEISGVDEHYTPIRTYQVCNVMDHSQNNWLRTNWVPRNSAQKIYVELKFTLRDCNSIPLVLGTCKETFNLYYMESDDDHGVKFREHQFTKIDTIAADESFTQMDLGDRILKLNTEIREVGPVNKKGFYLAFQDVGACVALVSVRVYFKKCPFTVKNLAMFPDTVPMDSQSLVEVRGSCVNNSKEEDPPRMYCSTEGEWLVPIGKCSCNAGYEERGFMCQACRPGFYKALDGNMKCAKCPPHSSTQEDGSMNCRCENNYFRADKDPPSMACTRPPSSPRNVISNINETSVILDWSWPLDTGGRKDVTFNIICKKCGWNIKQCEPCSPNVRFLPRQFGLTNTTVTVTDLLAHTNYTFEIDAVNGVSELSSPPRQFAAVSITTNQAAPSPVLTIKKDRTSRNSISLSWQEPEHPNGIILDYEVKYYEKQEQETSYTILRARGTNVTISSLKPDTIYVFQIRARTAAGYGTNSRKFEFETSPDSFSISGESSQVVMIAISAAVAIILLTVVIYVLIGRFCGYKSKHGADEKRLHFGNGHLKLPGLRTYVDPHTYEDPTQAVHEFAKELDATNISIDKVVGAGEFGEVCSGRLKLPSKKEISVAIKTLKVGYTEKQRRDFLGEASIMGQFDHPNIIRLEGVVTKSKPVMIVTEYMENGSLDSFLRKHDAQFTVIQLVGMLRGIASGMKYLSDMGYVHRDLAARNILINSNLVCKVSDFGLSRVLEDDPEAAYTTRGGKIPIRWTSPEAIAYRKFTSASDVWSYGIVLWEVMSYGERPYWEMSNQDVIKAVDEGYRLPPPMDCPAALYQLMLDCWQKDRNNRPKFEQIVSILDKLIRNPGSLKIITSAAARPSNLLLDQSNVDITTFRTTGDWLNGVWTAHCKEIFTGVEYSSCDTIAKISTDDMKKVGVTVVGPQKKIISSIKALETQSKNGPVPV
468 kinases (Homo sapiens, UniProt P27037), sequence (P27037 20-513 limits assumed): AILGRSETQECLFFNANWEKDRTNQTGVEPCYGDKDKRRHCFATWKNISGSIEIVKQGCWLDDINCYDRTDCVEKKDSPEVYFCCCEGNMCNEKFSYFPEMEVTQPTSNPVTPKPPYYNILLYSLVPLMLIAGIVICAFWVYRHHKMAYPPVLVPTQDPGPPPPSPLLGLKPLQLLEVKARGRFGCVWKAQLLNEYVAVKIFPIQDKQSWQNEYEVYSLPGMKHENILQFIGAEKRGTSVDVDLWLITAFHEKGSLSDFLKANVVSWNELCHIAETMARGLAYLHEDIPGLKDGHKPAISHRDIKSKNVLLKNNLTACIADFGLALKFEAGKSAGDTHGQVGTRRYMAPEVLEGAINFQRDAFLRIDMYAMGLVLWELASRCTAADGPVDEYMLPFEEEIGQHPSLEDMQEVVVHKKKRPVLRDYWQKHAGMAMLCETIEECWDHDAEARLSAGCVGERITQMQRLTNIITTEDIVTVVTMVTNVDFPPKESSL
468 kinases (Homo sapiens, UniProt P37173), sequence (P37173 23-567 limits assumed): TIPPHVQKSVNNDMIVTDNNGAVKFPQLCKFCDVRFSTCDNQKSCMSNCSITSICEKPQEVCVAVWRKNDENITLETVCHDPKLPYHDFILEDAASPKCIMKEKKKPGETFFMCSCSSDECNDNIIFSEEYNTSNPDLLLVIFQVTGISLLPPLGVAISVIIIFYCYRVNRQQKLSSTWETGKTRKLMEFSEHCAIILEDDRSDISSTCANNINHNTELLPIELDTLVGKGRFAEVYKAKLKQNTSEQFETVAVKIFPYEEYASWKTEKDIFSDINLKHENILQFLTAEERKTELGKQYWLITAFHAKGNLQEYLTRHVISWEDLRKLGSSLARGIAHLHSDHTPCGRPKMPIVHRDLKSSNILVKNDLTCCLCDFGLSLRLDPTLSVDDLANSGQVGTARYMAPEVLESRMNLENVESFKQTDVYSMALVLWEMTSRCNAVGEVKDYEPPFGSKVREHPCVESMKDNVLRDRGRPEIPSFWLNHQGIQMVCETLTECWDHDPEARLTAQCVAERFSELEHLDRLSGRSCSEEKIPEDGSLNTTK

Compound	inhibition at 0.1 µM [1] [%]	inhibition at 0.1 µM [2] [%]	inhibition at 0.1 µM [3] [%]	inhibition at 0.1 µM [4] [%]	inhibition at 0.1 µM [5] [%]	inhibition at 0.1 µM [6] [%]	inhibition at 0.1 µM [7] [%]	inhibition at 0.1 µM [8] [%]	inhibition at 0.1 µM [9] [%]	inhibition at 0.1 µM [10] [%]	inhibition at 0.1 µM [11] [%]	inhibition at 0.1 µM [12] [%]	inhibition at 0.1 µM [13] [%]	inhibition at 0.1 µM [14] [%]	inhibition at 0.1 µM [15] [%]	inhibition at 0.1 µM [16] [%]	inhibition at 0.1 µM [17] [%]	inhibition at 0.1 µM [18] [%]	inhibition at 0.1 µM [19] [%]	inhibition at 0.1 µM [20] [%]	other results
CCN(CC)CCNC(=O)c1c(C)[nH]c(/C=C2\C(=O)Nc3ccc(CCO)cc32)c1C [Compound No. 10, (Z)—N-(2-(Diethylamino)ethyl)-5-((5-(2-hydroxyethyl)-2-oxoindolin-3-ylidene)methyl)-2,4-dimethyl-1H-pyrrole-3-carboxamide]	0	83	32	0	10	0	0	0	0	93.8	50	0	88	0	34	31	89	32	0	0	inhibition at 0.1 µM [21]: 3%; inhibition at 0.1 µM [22]: 73%; inhibition at 0.1 µM [23]: 58%; inhibition at 0.1 µM [24]: 21%; inhibition at 0.1 µM [25]: 0%; inhibition at 0.1 µM [26]: 68%; inhibition at 0.1 µM [27]: 1%; inhibition at 0.1 µM [28]: 71%; inhibition at 0.1 µM [29]: 0%; inhibition at 0.1 µM [30]: 29%; inhibition at 0.1 µM [31]: 88%; inhibition at 0.1 µM [32]: 0%; inhibition at 0.1 µM [33]: 40%
CCN(CC)CCNC(=O)c1c(C)[nH]c(/C=C2\C(=O)Nc3ccc(CCC(N)=O)cc32)c1C [Compound No. 16, (Z)-5-((5-(3-Amino-3-oxopropyl)-2-oxoindolin-3-ylidene)methyl)-N-(2-(diethylamino)ethyl)-2,4-dimethyl-1H-pyrrole-3-carboxamide]	0	93.2	9	10	18	14	0	3	22	100	45	9	89	0	20	16	88	24	28	3	inhibition at 0.1 µM [21]: 31%; inhibition at 0.1 µM [22]: 88%; inhibition at 0.1 µM [23]: 99.5%; inhibition at 0.1 µM [24]: 95.3%; inhibition at 0.1 µM [25]: 16%; inhibition at 0.1 µM [26]: 68%; inhibition at 0.1 µM [27]: 0%; inhibition at 0.1 µM [28]: 78%; inhibition at 0.1 µM [29]: 0%; inhibition at 0.1 µM [30]: 54%; inhibition at 0.1 µM [31]: 77%; inhibition at 0.1 µM [32]: 88%; inhibition at 0.1 µM [33]: 30%
